Measurements reported in the NIST ThermoML archive (doi:10.1016/j.jct.2019.105881).
± gives the expanded uncertainty stated by the source.

Experiment: wn = mass fraction of the nth substance listed
Conditions: 100 kPa, Liquid, transient hot wire

## CCCCCCCCCCCC(=O)OC [methyl dodecanoate] + CCCCCO
287.79 K, w1 = 0.6756
  thermal conductivity: 0.1488 ± 0.006 W/m/K
287.86 K, w1 = 0.2997
  thermal conductivity: 0.1497 ± 0.006 W/m/K
287.92 K, w1 = 0.5029
  thermal conductivity: 0.1493 ± 0.006 W/m/K
288 K, w1 = 0.1021
  thermal conductivity: 0.1503 ± 0.0061 W/m/K
288.01 K, w1 = 0.8983
  thermal conductivity: 0.1482 ± 0.006 W/m/K
297.82 K, w1 = 0.1021
  thermal conductivity: 0.1486 ± 0.006 W/m/K
297.86 K, w1 = 0.5029
  thermal conductivity: 0.1475 ± 0.0059 W/m/K
297.95 K, w1 = 0.6756
  thermal conductivity: 0.1469 ± 0.0059 W/m/K
298.07 K, w1 = 0.2997
  thermal conductivity: 0.148 ± 0.006 W/m/K
298.1 K, w1 = 0.8983
  thermal conductivity: 0.1456 ± 0.0059 W/m/K
307.72 K, w1 = 0.1021
  thermal conductivity: 0.1468 ± 0.0059 W/m/K
307.78 K, w1 = 0.6756
  thermal conductivity: 0.145 ± 0.0058 W/m/K
307.8 K, w1 = 0.5029
  thermal conductivity: 0.1453 ± 0.0058 W/m/K
307.84 K, w1 = 0.2997
  thermal conductivity: 0.1455 ± 0.0059 W/m/K
307.9 K, w1 = 0.8983
  thermal conductivity: 0.1441 ± 0.0058 W/m/K
317.72 K, w1 = 0.1021
  thermal conductivity: 0.1441 ± 0.0058 W/m/K
317.72 K, w1 = 0.2997
  thermal conductivity: 0.1435 ± 0.0058 W/m/K
317.8 K, w1 = 0.6756
  thermal conductivity: 0.1424 ± 0.0057 W/m/K
317.85 K, w1 = 0.5029
  thermal conductivity: 0.1429 ± 0.0058 W/m/K
317.85 K, w1 = 0.8983
  thermal conductivity: 0.1419 ± 0.0057 W/m/K
327.58 K, w1 = 0.1021
  thermal conductivity: 0.1422 ± 0.0057 W/m/K
327.68 K, w1 = 0.2997
  thermal conductivity: 0.1412 ± 0.0057 W/m/K
327.7 K, w1 = 0.6756
  thermal conductivity: 0.1407 ± 0.0057 W/m/K
327.72 K, w1 = 0.5029
  thermal conductivity: 0.141 ± 0.0057 W/m/K
327.87 K, w1 = 0.8983
  thermal conductivity: 0.1397 ± 0.0056 W/m/K
337.42 K, w1 = 0.1021
  thermal conductivity: 0.1399 ± 0.0056 W/m/K
337.53 K, w1 = 0.2997
  thermal conductivity: 0.139 ± 0.0056 W/m/K
337.67 K, w1 = 0.5029
  thermal conductivity: 0.1389 ± 0.0056 W/m/K
337.76 K, w1 = 0.6756
  thermal conductivity: 0.1385 ± 0.0056 W/m/K
337.85 K, w1 = 0.8983
  thermal conductivity: 0.1373 ± 0.0055 W/m/K
347.5 K, w1 = 0.2997
  thermal conductivity: 0.137 ± 0.0055 W/m/K
347.65 K, w1 = 0.1021
  thermal conductivity: 0.138 ± 0.0056 W/m/K
347.66 K, w1 = 0.5029
  thermal conductivity: 0.1368 ± 0.0055 W/m/K
347.7 K, w1 = 0.8983
  thermal conductivity: 0.1352 ± 0.0054 W/m/K
347.78 K, w1 = 0.6756
  thermal conductivity: 0.1356 ± 0.0055 W/m/K
357.16 K, w1 = 0.1021
  thermal conductivity: 0.1364 ± 0.0055 W/m/K
357.47 K, w1 = 0.2997
  thermal conductivity: 0.135 ± 0.0054 W/m/K
357.65 K, w1 = 0.5029
  thermal conductivity: 0.1348 ± 0.0054 W/m/K
357.73 K, w1 = 0.6756
  thermal conductivity: 0.1335 ± 0.0054 W/m/K
357.79 K, w1 = 0.8983
  thermal conductivity: 0.1332 ± 0.0054 W/m/K

## CCCCCCCCCCCC(=O)OC [methyl dodecanoate] + CCCCO
287.91 K, w1 = 0.3009
  thermal conductivity: 0.1499 ± 0.006 W/m/K
287.94 K, w1 = 0.1013
  thermal conductivity: 0.1515 ± 0.0061 W/m/K
287.95 K, w1 = 0.5027
  thermal conductivity: 0.1492 ± 0.006 W/m/K
288.07 K, w1 = 0.6997
  thermal conductivity: 0.1488 ± 0.006 W/m/K
288.14 K, w1 = 0.8996
  thermal conductivity: 0.1485 ± 0.006 W/m/K
297.76 K, w1 = 0.1013
  thermal conductivity: 0.1489 ± 0.006 W/m/K
297.9 K, w1 = 0.6997
  thermal conductivity: 0.1469 ± 0.0059 W/m/K
297.92 K, w1 = 0.5027
  thermal conductivity: 0.1471 ± 0.0059 W/m/K
297.95 K, w1 = 0.3009
  thermal conductivity: 0.1475 ± 0.0059 W/m/K
298.02 K, w1 = 0.8996
  thermal conductivity: 0.1463 ± 0.0059 W/m/K
307.79 K, w1 = 0.1013
  thermal conductivity: 0.1465 ± 0.0059 W/m/K
307.81 K, w1 = 0.3009
  thermal conductivity: 0.1457 ± 0.0059 W/m/K
307.83 K, w1 = 0.5027
  thermal conductivity: 0.1452 ± 0.0058 W/m/K
307.96 K, w1 = 0.8996
  thermal conductivity: 0.1441 ± 0.0058 W/m/K
307.99 K, w1 = 0.6997
  thermal conductivity: 0.1445 ± 0.0058 W/m/K
317.67 K, w1 = 0.3009
  thermal conductivity: 0.1434 ± 0.0058 W/m/K
317.75 K, w1 = 0.1013
  thermal conductivity: 0.144 ± 0.0058 W/m/K
317.8 K, w1 = 0.5027
  thermal conductivity: 0.1426 ± 0.0057 W/m/K
317.83 K, w1 = 0.8996
  thermal conductivity: 0.1422 ± 0.0057 W/m/K
317.88 K, w1 = 0.6997
  thermal conductivity: 0.1424 ± 0.0057 W/m/K
327.6 K, w1 = 0.1013
  thermal conductivity: 0.1419 ± 0.0057 W/m/K
327.69 K, w1 = 0.3009
  thermal conductivity: 0.1411 ± 0.0057 W/m/K
327.94 K, w1 = 0.5027
  thermal conductivity: 0.14 ± 0.0056 W/m/K
327.94 K, w1 = 0.6997
  thermal conductivity: 0.1398 ± 0.0056 W/m/K
328.11 K, w1 = 0.8996
  thermal conductivity: 0.139 ± 0.0056 W/m/K
337.45 K, w1 = 0.3009
  thermal conductivity: 0.1386 ± 0.0056 W/m/K
337.47 K, w1 = 0.1013
  thermal conductivity: 0.1395 ± 0.0056 W/m/K
337.93 K, w1 = 0.5027
  thermal conductivity: 0.1378 ± 0.0055 W/m/K
337.95 K, w1 = 0.8996
  thermal conductivity: 0.1371 ± 0.0055 W/m/K
337.96 K, w1 = 0.6997
  thermal conductivity: 0.1375 ± 0.0055 W/m/K
347.23 K, w1 = 0.1013
  thermal conductivity: 0.1368 ± 0.0055 W/m/K
347.28 K, w1 = 0.3009
  thermal conductivity: 0.1361 ± 0.0055 W/m/K
347.67 K, w1 = 0.6997
  thermal conductivity: 0.1354 ± 0.0054 W/m/K
347.73 K, w1 = 0.5027
  thermal conductivity: 0.1358 ± 0.0055 W/m/K
347.86 K, w1 = 0.8996
  thermal conductivity: 0.135 ± 0.0054 W/m/K
357.25 K, w1 = 0.3009
  thermal conductivity: 0.1333 ± 0.0054 W/m/K
357.28 K, w1 = 0.1013
  thermal conductivity: 0.1342 ± 0.0054 W/m/K
357.71 K, w1 = 0.8996
  thermal conductivity: 0.1322 ± 0.0053 W/m/K
357.82 K, w1 = 0.5027
  thermal conductivity: 0.133 ± 0.0054 W/m/K
357.87 K, w1 = 0.6997
  thermal conductivity: 0.1327 ± 0.0053 W/m/K

## CCCCCCCCCCCC(=O)OC [methyl dodecanoate] + CCCO
287.68 K, w1 = 0.6993
  thermal conductivity: 0.1497 ± 0.006 W/m/K
287.9 K, w1 = 0.298
  thermal conductivity: 0.1522 ± 0.0061 W/m/K
287.91 K, w1 = 0.1
  thermal conductivity: 0.1542 ± 0.0062 W/m/K
288 K, w1 = 0.4998
  thermal conductivity: 0.1509 ± 0.0061 W/m/K
288.06 K, w1 = 0.8996
  thermal conductivity: 0.1484 ± 0.006 W/m/K
297.73 K, w1 = 0.6993
  thermal conductivity: 0.1473 ± 0.0059 W/m/K
297.79 K, w1 = 0.1
  thermal conductivity: 0.1517 ± 0.0061 W/m/K
297.85 K, w1 = 0.4998
  thermal conductivity: 0.1484 ± 0.006 W/m/K
297.85 K, w1 = 0.8996
  thermal conductivity: 0.1467 ± 0.0059 W/m/K
297.93 K, w1 = 0.298
  thermal conductivity: 0.1494 ± 0.006 W/m/K
307.66 K, w1 = 0.1
  thermal conductivity: 0.1492 ± 0.006 W/m/K
307.76 K, w1 = 0.4998
  thermal conductivity: 0.1457 ± 0.0059 W/m/K
307.83 K, w1 = 0.298
  thermal conductivity: 0.1474 ± 0.0059 W/m/K
307.89 K, w1 = 0.8996
  thermal conductivity: 0.1445 ± 0.0058 W/m/K
308.03 K, w1 = 0.6993
  thermal conductivity: 0.1452 ± 0.0058 W/m/K
317.53 K, w1 = 0.298
  thermal conductivity: 0.1451 ± 0.0058 W/m/K
317.62 K, w1 = 0.1
  thermal conductivity: 0.1474 ± 0.0059 W/m/K
317.67 K, w1 = 0.4998
  thermal conductivity: 0.1436 ± 0.0058 W/m/K
317.86 K, w1 = 0.6993
  thermal conductivity: 0.1429 ± 0.0058 W/m/K
318.02 K, w1 = 0.8996
  thermal conductivity: 0.1422 ± 0.0057 W/m/K
327.34 K, w1 = 0.298
  thermal conductivity: 0.1424 ± 0.0057 W/m/K
327.67 K, w1 = 0.1
  thermal conductivity: 0.1446 ± 0.0058 W/m/K
327.67 K, w1 = 0.4998
  thermal conductivity: 0.1412 ± 0.0057 W/m/K
327.68 K, w1 = 0.8996
  thermal conductivity: 0.1398 ± 0.0056 W/m/K
328.03 K, w1 = 0.6993
  thermal conductivity: 0.1405 ± 0.0057 W/m/K
337.22 K, w1 = 0.1
  thermal conductivity: 0.1423 ± 0.0057 W/m/K
337.4 K, w1 = 0.298
  thermal conductivity: 0.14 ± 0.0056 W/m/K
337.64 K, w1 = 0.4998
  thermal conductivity: 0.1391 ± 0.0056 W/m/K
337.82 K, w1 = 0.6993
  thermal conductivity: 0.1384 ± 0.0056 W/m/K
337.85 K, w1 = 0.8996
  thermal conductivity: 0.1377 ± 0.0055 W/m/K
347.19 K, w1 = 0.1
  thermal conductivity: 0.139 ± 0.0056 W/m/K
347.24 K, w1 = 0.298
  thermal conductivity: 0.1374 ± 0.0055 W/m/K
347.52 K, w1 = 0.4998
  thermal conductivity: 0.1368 ± 0.0055 W/m/K
347.82 K, w1 = 0.6993
  thermal conductivity: 0.1362 ± 0.0055 W/m/K
347.93 K, w1 = 0.8996
  thermal conductivity: 0.135 ± 0.0054 W/m/K
357.25 K, w1 = 0.1
  thermal conductivity: 0.1365 ± 0.0055 W/m/K
357.44 K, w1 = 0.298
  thermal conductivity: 0.1351 ± 0.0054 W/m/K
357.79 K, w1 = 0.4998
  thermal conductivity: 0.1344 ± 0.0054 W/m/K
357.91 K, w1 = 0.6993
  thermal conductivity: 0.1337 ± 0.0054 W/m/K
357.93 K, w1 = 0.8996
  thermal conductivity: 0.1326 ± 0.0053 W/m/K
